In ChEMBL document CHEMBL1151391, “New Dihydrochalcones and Flavanones From Uvaria Angolensis” (1982) one finds Activity data, which are given here for two molecules.

What all share (format): functional
Test [1] concerns Staphylococcus aureus. Briefly: Antimicrobial activity against Staphylococcus aureus.
The subject of test [2] is Bacillus subtilis. Briefly: Antimicrobial activity against Bacillus subtilis.
In test [3] the test system is Mycolicibacterium smegmatis. Briefly: Antimicrobial activity against Mycobacterium smegmatis.

For the molecule `COc1c(C)c(O)c(C)c(O)c1C(=O)CCc1ccccc1` [ANGOLETIN], the Activity in test [1] turned out to be 12.5 µg/mL; in test [2] it was 0.8 µg/mL; in test [3], 6.3 µg/mL.

Turning to `COc1c(C)c(O)c(Cc2ccccc2O)c(O)c1C(=O)CCc1ccccc1` [ANGUVETIN], the Activity in test [1] amounted to 1.5 µg/mL; in test [2], 0.2 µg/mL; in test [3], 1.5 µg/mL.
